Values belong to the molecule of their own block, whether it stands above or below them.
Legend:
[1] = test system: CD11c+ dendritic cells / OTII T cells; test: Antigen presentation assay, purified CD11c+ dendritic cells and purified OTII T cells; assay type: cell-based, mouse
Experimental: FIGS. 4A, 4B, 4C and 4D are graphs showing that CD11c^+ dendritic cells are the main antigen presenting cells presenting 3-1-targeted antigen. […] 1.5×10^4 Splenic CD11c^+ dendritic cells purified from C57BL/6 mice and 3.0×10^4 purified OTII T cells were incubated with OVA (starting concentration 300 μg mL^−1) or (OVA)-3-1 (starting concentration 25 μg mL^−1) in graded doses for eight-four hours with [^3H]thymidine (1 μCi) added for the last twelve hours. […] Purified CD11c^+ dendritic cells and OTII T cells were incubated with (OVA)-3-1 (25 μg mL^−1)±each potential inhibitor (100 μg mL^−1). T cell proliferation was determined as for FIG. 4A. […] CD11c^+ dendritic cells and OTII T cells were incubated with OVA or (OVA)-3-1±lipopolysaccharide ([…]). Also included are all ‘non-dendritic cells’ (macrophages and B cells) obtained during the purification of the dendritic cells. T cell proliferation was determined as described in FIG. 4A. […] Supernatants from cells described in FIG. 4C were collected at forty-eight and seventy-two hours and measured for IFN-γ by ELISA; the values presented are from the seventy-two hour time point. All measurements here were performed in triplicate.
To confirm that the increased T cell proliferation observed with (OVA)-3-1 was due to the selective uptake of this conjugate by dendritic cells and not B cells or macrophages, purified CD11c^+ dendritic cells were prepared from wild-type C57BL/6 mice and the OVA-specific T cells from transgenic OTII mice (see Materials & Methods). The in vitro antigen presentation assays described above were then repeated. […] By comparison, >50-fold more unmodified OVA was required to obtain similar levels of T cell proliferation. When B cells and macrophages were used as antigen-presenting cells in place of purified dendritic cells, the resulting T cell responses were negligible (FIG. 4C), providing strong confirmation that CD11c^+ dendritic cells are the main antigen-presenting cells mediating uptake and presentation of (OVA)-3-1 to OTII T cells.
(§1) Pooled inguinal lymph nodes were dissociated in 10% Fetal Bovine Serum RPMI (supplemented with 2 mM L-glutamine) and either mechanically dissociated between two glass slides or, to improve the overall cell yield, incubated in the presence of collagenase (Boehringer) and EDTA for 25 minutes at 37° C./5% CO2 to dissociate DC-T cell clusters. For antigen presentation assays with whole splenocytes, isolated spleens were injected with collagenase/EDTA, gently teased apart and incubated as described above. Splenocytes were cultured in 96-well round-bottom plates at a density of 3×10^5 cells/0.2 mL. In antigen presentation assays utilizing purified dendritic cells and T cells, dendritic cells were isolated from the spleens of C57BL/6 mice following collagenase/EDTA treatment by labeling the dendritic cells with commercially available magnetic microbeads linked to an anti-CD11c^+ antibody (Miltenyi Biotec, Bergisch Gladbach, Germany) (according to the Miltenyi Biotec protocol) and separating labeled Dendritic cells from non-dendritic cells by application of a magnetic field. Similarly, purified […] T cells were obtained from spleens of OTII transgenic mice using magnetic beads Dynal (Oslo, Norway). Purified dendritic cells and T cells were seeded onto 96-well plates round-bottom Plates at a 1:2 DC:T cell ratio unless stated otherwise in the Figures.

[2] = test system: OTII (CD4+) T cells in unfractionated splenocytes; test: Antigen presentation assay, unfractionated OTII splenocytes, [3H]thymidine T cell proliferation; assay type: cell-based, mouse; conditions: OTII splenocytes
Experimental: FIG. 2B is a graph showing that oligosaccharide modification of OVA elicits stronger presentation to OTII T cells than unmodified OVA. Unfractionated OTII splenocytes (3×10^5/well) were incubated with graded doses of OVA or oligosaccharide-modified OVA for eighty-four hours with [^3H]thymidine (1 μCi) added for the last 12 hours. Thereafter [^3H]thymidine incorporation levels were measured and plotted. FIG. 2C is a graph showing that observed enhancements in antigen presentation of (OVA)-3-1 to T cells is carbohydrate dependent. Splenocytes were incubated with antigen as in (B)±(BSA)-3-1 (10 μg mL^−1). In cases where (OVA)-3-1 was added to OVA wells to assess the possibility of direct activation of T cells (see text), (OVA)-3-1 was present at 50 ng mL^−1; incubations were performed for seventy-two hours with [^3H]thymidine (1 μCi) added for the last 12 hours. FIG. 2D is a graph showing that the receptor mediated uptake of (OVA)-3-1 has a different binding profile than that observed for DC-SIGN. Unfractionated splenocytes were incubated with OVA or (OVA)-3-1±mBSA or Lewis^x-BSA (each at 100 μg mL^−1). Incubations were performed for seventy-two hours with [^3H]thymidine (1 μCi) added for the last twelve hours. All values reported are the mean of triplicate measurements.
The ability of these conjugates to enhance antigen uptake by dendritic cells was assessed in comparison to unmodified OVA by incubating graded doses of conjugate and OVA with unfractionated splenocytes (containing T cells, B cells, dendritic cells, macrophages) isolated from OTII (CD4^+) transgenic mice. The ability of dendritic cells to present antigenic peptides derived from targeted proteins was measured as a function of T cell proliferation in response to those presented peptides. T cell proliferation is quantified by [^3H]thymidine incorporation during cellular division.
as §1

[3] = biological target: T1, DC-SIGN (Homo sapiens, UniProt Q9NNX6); conditions: carbohydrate profiling by another group; cited from earlier work
T1 sequence (Q9NNX6 1-404): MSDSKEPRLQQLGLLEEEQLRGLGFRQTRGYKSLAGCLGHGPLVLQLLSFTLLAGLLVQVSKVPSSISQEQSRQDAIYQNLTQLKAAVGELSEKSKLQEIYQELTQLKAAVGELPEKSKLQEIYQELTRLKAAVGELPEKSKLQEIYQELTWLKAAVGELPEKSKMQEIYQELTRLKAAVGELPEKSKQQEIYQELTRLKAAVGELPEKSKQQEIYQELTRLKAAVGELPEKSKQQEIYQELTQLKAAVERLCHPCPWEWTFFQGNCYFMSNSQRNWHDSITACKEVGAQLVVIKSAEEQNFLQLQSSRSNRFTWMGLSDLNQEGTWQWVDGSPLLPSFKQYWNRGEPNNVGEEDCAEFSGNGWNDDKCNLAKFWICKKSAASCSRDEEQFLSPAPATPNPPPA

[4] = biological target: T2, (OVA)-3-1, ovalbumin conjugated to the synthetic high-mannose nonasaccharide 3-1 (fluorophore-labeled in the … (UniProt P01012 2-386, average of three saccharides of structure 3-1 per molecule of OVA, coupled through the Sulfo-SMCC maleimide crosslinker to the thiol-bearing linker of the saccharide (sites not given); fluorophore …); test: binding and internalization of fluorophore-labeled (OVA)-3-1 on a cell line stably expressing CIRE
T2 construct: Neoglycoprotein; also called fluorophore-labeled (OVA)-3-1; carbohydrate-OVA conjugate
T2 sequence (looked up): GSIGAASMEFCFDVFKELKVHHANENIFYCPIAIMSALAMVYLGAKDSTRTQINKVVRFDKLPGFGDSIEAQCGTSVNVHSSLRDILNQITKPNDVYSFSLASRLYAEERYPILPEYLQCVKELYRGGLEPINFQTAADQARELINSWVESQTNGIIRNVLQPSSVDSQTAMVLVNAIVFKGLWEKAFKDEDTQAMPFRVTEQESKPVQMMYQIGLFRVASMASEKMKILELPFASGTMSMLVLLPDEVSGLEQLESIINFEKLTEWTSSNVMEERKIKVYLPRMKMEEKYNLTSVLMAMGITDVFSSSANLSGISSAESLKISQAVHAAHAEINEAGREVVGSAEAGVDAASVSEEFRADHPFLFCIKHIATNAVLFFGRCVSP
Experimental: (§2) To identify the receptor mediating uptake of the oligosaccharides employed herein, the murine DC-SIGN homolog CIRE[10] was analyzed as a potential receptor; a cell line stably expressing this lectin was used to assay for binding and internalization of fluorophore-labeled 3-1 and fluorophore-labeled (OVA)-3-1. […] The receptor may be identified biochemically, for example, by cross-linking it to bound (OVA)-3-1 and immunoprecipitating the complex with polyclonal sera raised against ovalbumin. Identification of the receptor would enable the determination of its human homolog.

[5] = biological target: T3, CIRE (Mus musculus, UniProt Q91ZX1); test: Binding and internalization by a cell line stably expressing CIRE; assay type: cell-based, murine
T3 construct: expressed in transfected cells
T3 sequence (Q91ZX1 1-238): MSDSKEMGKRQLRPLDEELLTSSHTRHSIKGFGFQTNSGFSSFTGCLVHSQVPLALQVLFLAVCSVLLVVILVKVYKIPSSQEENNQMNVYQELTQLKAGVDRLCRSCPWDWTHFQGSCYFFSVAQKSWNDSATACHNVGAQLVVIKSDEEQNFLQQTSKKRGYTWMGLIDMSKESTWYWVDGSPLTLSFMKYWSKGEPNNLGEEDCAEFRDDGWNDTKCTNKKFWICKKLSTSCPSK
Experimental: as §2, with “CIRE^10” for “CIRE[10]”

[6] = (OVA)-3-1 25 μg mL^−1, inhibitor 100 μg mL^−1

Molecule: invertase: high-mannose-bearing glycoprotein [reference compound]
- reduction (inhibition) of (OVA)-3-1 presentation [1, 6]: 18%
- concentration giving inhibition of (OVA)-3-1 presentation ([1]; similar level of inhibition as mannose): 0.5 µM

Molecule: mannan [reference compound]
- reduction (inhibition) of (OVA)-3-1 presentation [1, 6]: 31%

Molecule: bovine serum albumin [BSA, reference compound]
- effect of co-incubated protein on (OVA)-3-1 uptake / OTII proliferation ([2]; (BSA)-3-1 10 μg mL^−1, 72 h): did not affect

Molecule: CC(=O)N[C@H]1C(O)O[C@H](CO)[C@@H](O[C@@H]2O[C@H](CO)[C@H](O)[C@H](O)[C@H]2O)[C@@H]1O[C@@H]1O[C@@H](C)[C@@H](O)[C@@H](O)[C@@H]1O (stereo partly drawn) [Lewis^x, reference compound]
- inhibitory effect on (OVA)-3-1 presentation by dendritic cells [1, 6]: marginal effects
- recognition by DC-SIGN [3]: can recognize

- binding result [4]: no binding
B1: CIRE, murine DC-SIGN homolog (receptor)
chain: T3 sequence (Q91ZX1 1-238)

B2: (OVA)-3-7: ovalbumin conjugate of monosaccharide galactose 3-7 (conjugate, UniProt P01012 2-386, looked up)
Ovalbumin: T2 sequence (looked up)
modifications: carbohydrate conjugate
- enhancement of antigen uptake and presentation to T cells (T cell proliferation) compared to unmodified OVA ([2]; graded doses): did not promote increased presentation at all

- binding and internalization by CIRE-expressing cell line [5]: did not reveal any interactions
B3: fluorophore-labeled (OVA)-3-1: fluorophore-labeled (OVA)-3-1 (conjugate)
chain: T2 sequence (looked up)
